Measured values as given in US20150126465A1, “PROCESS FOR PRODUCING DERIVATIVES OF PYROSTEGIA VENUSTA, DERIVATIVES OF PYROSTEGIA VENUSTA, PHARMACEUTICAL COMPOSITIONS AND ITS USES” (priority 2011, published 2015).

System: Phomopsis longicolla (soy isolate)
Assay: MIC by microdilution, filamentous fungi (CLSI M38-A)
Assay type: cell-based
Conditions: Diaporthe longicolla, 168 h; Table 13, Phomopsis longicolla- soy, 7 days, 28° C.; read-out: MIC

## Clc1ccc(COC(Cn2ccnc2)c2ccc(Cl)cc2Cl)c(Cl)c1 (stereo not shown) [Miconazol]
  MIC: < 0.125 µg/mL
